PubChem BioAssay AID256 (DTP/NCI, 2004)
Several values for one entry are separate records, joined by “and”; a condition that tells them apart may be missing. Identical values can stand only once. Toxic doses and inconclusive results are not listed.

System: CD2F1 mice, L1210 leukemia ip, survival T/C
Assay: NCI In Vivo Anticancer Drug Screen. Data for tumor model L1210 Leukemia (intraperitoneal) in CD2F1 (CDF1) mice
Conditions: higher = longer survival
Summary of the method: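 Compound-dosed mice with transplantable tumor versus matched vehicle controls; endpoint ratio T/C reported.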

[1] = endpoint: mean survival time, dose: 100.0 mg/kg/injection, schedule: Q04DX002 (ip), vehicle: saline with Tween-80
[2] = endpoint: mean survival time, dose: 200.0 mg/kg/injection, schedule: Q04DX002 (ip), vehicle: saline with Tween-80
[3] = endpoint: mean survival time, dose: 25.0 mg/kg/injection, schedule: Q01DX001 (ip), vehicle: saline with Tween-80
[4] = endpoint: mean survival time, dose: 50.0 mg/kg/injection, schedule: Q01DX001 (ip), vehicle: saline with Tween-80
[5] = endpoint: mean survival time, dose: 100.0 mg/kg/injection, schedule: Q04DX003 (ip), vehicle: saline with Tween-80
[6] = endpoint: mean survival time, dose: 200.0 mg/kg/injection, schedule: Q04DX003 (ip), vehicle: saline with Tween-80
[7] = endpoint: mean survival time, dose: 400.0 mg/kg/injection, schedule: Q04DX003 (ip), vehicle: saline with Tween-80
[8] = endpoint: mean survival time, dose: 10.0 mg/kg/injection, schedule: Q01DX009 (ip), vehicle: saline with Tween-80
[9] = endpoint: mean survival time, dose: 100.0 mg/kg/injection, schedule: Q01DX001 (ip), vehicle: saline with Tween-80
[10] = endpoint: mean survival time, dose: 200.0 mg/kg/injection, schedule: Q01DX001 (ip), vehicle: saline with Tween-80
[11] = endpoint: mean survival time, dose: 400.0 mg/kg/injection, schedule: Q01DX001 (ip), vehicle: saline with Tween-80
[12] = endpoint: mean survival time, dose: 100.0 mg/kg/injection, schedule: Q01DX009 (ip), vehicle: saline with Tween-80
[13] = endpoint: mean survival time, dose: 200.0 mg/kg/injection, schedule: Q01DX009 (ip), vehicle: saline with Tween-80
[14] = endpoint: mean survival time, dose: 12.5 mg/kg/injection, schedule: Q01DX009 (ip), vehicle: saline with Tween-80

[Co+3].[NH-]CC(=O)O.[NH-]CC(=O)O.[NH-]CC(=O)O
T/C (endpoint: mean survival time, dose: 25.0 mg/kg/injection, schedule: Q04DX002 (ip), vehicle: saline with Tween-80): 104 % of control and 101 % of control | T/C (endpoint: mean survival time, dose: 50.0 mg/kg/injection, schedule: Q04DX002 (ip), vehicle: saline with Tween-80): 104 % of control and 96 % of control | T/C [1]: 104 % of control and 106 % of control | T/C [2]: 117 % of control

O=C(CC(Cl)(C(F)(F)F)C(F)(F)F)c1cccc([N+](=O)[O-])c1
T/C (endpoint: mean survival time, dose: 12.5 mg/kg/injection, schedule: Q01DX001 (ip), vehicle: saline with Tween-80): 103 % of control | T/C [3]: 100 % of control | T/C [4]: 97 % of control and 105 % of control

CC12CC(c3ccccc3)C(C)(C(c3ccccc3)=C1c1ccccc1)C2(O)c1ccccc1 (centres undefined)
T/C [1]: 94 % of control | T/C [2]: 86 % of control | T/C (endpoint: mean survival time, dose: 400.0 mg/kg/injection, schedule: Q04DX002 (ip), vehicle: saline with Tween-80): 94 % of control

O=C([O][Sb]([O]C(=O)C(Br)Br)([c]1ccccc1)([c]1ccccc1)[c]1ccccc1)C(Br)Br
T/C [5]: 95 % of control | T/C [6]: 89 % of control | T/C [7]: 95 % of control

CC(C)C1CCC2=C(CCC3C(C)(C(=O)O)CCCC23C)C1 (centres undefined)
T/C [5]: 95 % of control | T/C [6]: 88 % of control | T/C [7]: 89 % of control

O=S(CC(O)(c1ccccc1)c1ccccc1)c1ccccc1 (centres undefined)
T/C [5]: 93 % of control | T/C [6]: 97 % of control | T/C [7]: 97 % of control

Cc1cc(C)c(CN)cc1C
T/C (endpoint: mean survival time, dose: 5.0 mg/kg/injection, schedule: Q01DX009 (ip), vehicle: saline with Tween-80): 96 % of control | T/C [8]: 105 % of control | T/C (endpoint: mean survival time, dose: 20.0 mg/kg/injection, schedule: Q01DX009 (ip), vehicle: saline with Tween-80): 92 % of control

CCCC(=O)OCC1OC(n2ccc(O)cc2=O)C(O)C1O (centres undefined)
T/C (endpoint: median survival time, dose: 44.0 mg/kg/injection, schedule: Q01DX009 (ip), vehicle: saline + Tween-80 + alcohol): 171 % of control | T/C (endpoint: median survival time, dose: 67.0 mg/kg/injection, schedule: Q01DX009 (ip), vehicle: saline + Tween-80 + alcohol): 174 % of control | T/C (endpoint: median survival time, dose: 100.0 mg/kg/injection, schedule: Q01DX009 (ip), vehicle: saline + Tween-80 + alcohol): 168 % of control | T/C (endpoint: median survival time, dose: 150.0 mg/kg/injection, schedule: Q01DX009 (ip), vehicle: saline + Tween-80 + alcohol): 162 % of control

Cc1nc(N)[nH]c(=O)c1NC(=O)c1ccccc1N
T/C [9]: 94 % of control | T/C [10]: 87 % of control | T/C [11]: 89 % of control

CC(=O)SCCC(=O)O
T/C (endpoint: mean survival time, dose: 25.0 mg/kg/injection, schedule: Q04DX003 (ip), vehicle: saline): 96 % of control | T/C (endpoint: mean survival time, dose: 50.0 mg/kg/injection, schedule: Q04DX003 (ip), vehicle: saline): 104 % of control

CC(=O)Nc1ccc(NC(=O)Nc2ccc(C)c([N+](=O)[O-])c2)cc1
T/C (endpoint: mean survival time, dose: 50.0 mg/kg/injection, schedule: Q01DX009 (ip), vehicle: saline with Tween-80): 98 % of control | T/C [12]: 98 % of control | T/C [13]: 98 % of control

CC(C)(C)OOC(=O)Nc1ccc(Cl)cc1
T/C [3]: 88 % of control | T/C [4]: 92 % of control | T/C [9]: 88 % of control

CCN(CC)c1nc(Cl)nc(NC(C)C)n1
T/C [12]: 100 % of control | T/C (endpoint: mean survival time, dose: 100.0 mg/kg/injection, schedule: Q04DX003 (ip), vehicle: saline): 103 % of control | T/C [13]: 101 % of control | T/C (endpoint: mean survival time, dose: 200.0 mg/kg/injection, schedule: Q04DX003 (ip), vehicle: saline): 100 % of control | T/C (endpoint: mean survival time, dose: 400.0 mg/kg/injection, schedule: Q01DX009 (ip), vehicle: saline with Tween-80): 94 % of control | T/C (endpoint: mean survival time, dose: 400.0 mg/kg/injection, schedule: Q04DX003 (ip), vehicle: saline): 103 % of control

Clc1cccc(-c2nc3ccccc3c3ccccc23)c1
T/C [5]: 93 % of control | T/C [7]: 98 % of control

c1ccc(-c2cc(-c3ccccc3)[o+]c(-c3ccccc3)c2)cc1
T/C (endpoint: mean survival time, dose: 3.13 mg/kg/injection, schedule: Q01DX009 (ip), vehicle: saline with Tween-80): 100 % of control | T/C (endpoint: mean survival time, dose: 3.13 mg/kg/injection, schedule: Q04DX003 (ip), vehicle: saline): 101 % of control | T/C (endpoint: mean survival time, dose: 6.25 mg/kg/injection, schedule: Q01DX009 (ip), vehicle: saline with Tween-80): 100 % of control | T/C (endpoint: mean survival time, dose: 6.25 mg/kg/injection, schedule: Q04DX003 (ip), vehicle: saline): 98 % of control | T/C [14]: 97 % of control | T/C (endpoint: mean survival time, dose: 12.5 mg/kg/injection, schedule: Q04DX003 (ip), vehicle: saline): 104 % of control | T/C [5]: 95 % of control

Nc1nc2cc[nH]c2c(=O)[nH]1
T/C (endpoint: median survival time, dose: 50.0 mg/kg/injection, schedule: Q01DX005 (ip), vehicle: saline with Tween-80): 94 % of control | T/C (endpoint: median survival time, dose: 100.0 mg/kg/injection, schedule: Q01DX005 (ip), vehicle: saline with Tween-80): 97 % of control | T/C (endpoint: median survival time, dose: 200.0 mg/kg/injection, schedule: Q01DX005 (ip), vehicle: saline with Tween-80): 92 % of control

Cc1ccc(S(=O)(=O)OC2(c3cc(C(F)(F)F)cc(C(F)(F)F)c3)C3CCC2CC3)cc1 (centres undefined)
T/C (endpoint: mean survival time, dose: 37.5 mg/kg/injection, schedule: Q04DX002 (ip), vehicle: saline with Tween-80): 102 % of control | T/C (endpoint: mean survival time, dose: 75.0 mg/kg/injection, schedule: Q04DX002 (ip), vehicle: saline with Tween-80): 94 % of control | T/C (endpoint: mean survival time, dose: 150.0 mg/kg/injection, schedule: Q04DX002 (ip), vehicle: saline with Tween-80): 98 % of control | T/C (endpoint: mean survival time, dose: 300.0 mg/kg/injection, schedule: Q04DX002 (ip), vehicle: saline with Tween-80): 102 % of control

Oc1ccc(-c2nc3ccccc3s2)cc1
T/C [9]: 91 % of control | T/C [10]: 95 % of control | T/C [11]: 91 % of control

Cc1cc(F)ccc1NC(=O)OC(C)C
T/C [5]: 101 % of control | T/C [6]: 92 % of control | T/C [7]: 104 % of control

CC(C)N(C=C(C#N)C#N)C(C)C
T/C [14]: 91 % of control | T/C [3]: 103 % of control | T/C (endpoint: mean survival time, dose: 25.0 mg/kg/injection, schedule: Q01DX009 (ip), vehicle: saline with Tween-80): 96 % of control | T/C [4]: 107 % of control | T/C [9]: 98 % of control

Cc1cc([NH-])c([NH-])cc1C.[Cl][Pt+2][Cl]
T/C (endpoint: mean survival time, dose: 2.5 mg/kg/injection, schedule: Q01DX009 (ip), vehicle: saline with Tween-80): 120 % of control and 123 % of control | T/C [8]: 150 % of control and 168 % of control | T/C (endpoint: mean survival time, dose: 10.0 mg/kg/injection, schedule: Q04DX003 (ip), vehicle: water): 121 % of control | T/C (endpoint: mean survival time, dose: 16.0 mg/kg/injection, schedule: Q04DX003 (ip), vehicle: water): 116 % of control | T/C (endpoint: mean survival time, dose: 24.0 mg/kg/injection, schedule: Q04DX003 (ip), vehicle: water): 112 % of control

O=C1c2ccccc2C(=O)c2c1cn1c2Cc2ccccc2C1
T/C (endpoint: median survival time, dose: 9.0 mg/kg/injection, schedule: Q01DX005 (ip), vehicle: Klucel (hydroxypropylcellulose) (HPC)): 106 % of control | T/C (endpoint: median survival time, dose: 9.37 mg/kg/injection, schedule: Q01DX005 (ip), vehicle: other): 106 % of control and 107 % of control | T/C (endpoint: median survival time, dose: 12.5 mg/kg/injection, schedule: Q01DX005 (ip), vehicle: Klucel (hydroxypropylcellulose) (HPC)): 110 % of control | T/C (endpoint: median survival time, dose: 15.0 mg/kg/injection, schedule: Q01DX005 (ip), vehicle: Klucel (hydroxypropylcellulose) (HPC)): 109 % of control | T/C (endpoint: median survival time, dose: 18.75 mg/kg/injection, schedule: Q01DX005 (ip), vehicle: other): 114 % of control and 103 % of control | T/C (endpoint: median survival time, dose: 25.0 mg/kg/injection, schedule: Q01DX005 (ip), vehicle: Klucel (hydroxypropylcellulose) (HPC)): 107 % of control | T/C (endpoint: median survival time, dose: 37.5 mg/kg/injection, schedule: Q01DX005 (ip), vehicle: other): 114 % of control and 111 % of control | T/C (endpoint: median survival time, dose: 41.66 mg/kg/injection, schedule: Q01DX005 (ip), vehicle: Klucel (hydroxypropylcellulose) (HPC)): 114 % of control | T/C (endpoint: median survival time, dose: 50.0 mg/kg/injection, schedule: Q01DX005 (ip), vehicle: Klucel (hydroxypropylcellulose) (HPC)): 108 % of control | T/C (endpoint: median survival time, dose: 69.44 mg/kg/injection, schedule: Q01DX005 (ip), vehicle: Klucel (hydroxypropylcellulose) (HPC)): 106 % of control | T/C (endpoint: median survival time, dose: 75.0 mg/kg/injection, schedule: Q01DX005 (ip), vehicle: other): 114 % of control and 98 % of control | T/C (endpoint: median survival time, dose: 100.0 mg/kg/injection, schedule: Q01DX005 (ip), vehicle: Klucel (hydroxypropylcellulose) (HPC)): 122 % of control | T/C (endpoint: median survival time, dose: 150.0 mg/kg/injection, schedule: Q01DX005 (ip), vehicle: other): 110 % of control | T/C (endpoint: median survival time, dose: 200.0 mg/kg/injection, schedule: Q01DX005 (ip), vehicle: Klucel (hydroxypropylcellulose) (HPC)): 107 % of control
